From ChEMBL document CHEMBL5465560, “Selectivity Literature for EUbOPEN Chemogenomic Library” (2024)

Experiments:
[1] = target: Insulin receptor-related protein (Homo sapiens) (UniProt P14616); assay: Selectivity interaction (KinomeScan (DiscoverX)) EUB0000229b INSRR; conditions: at 10 µM
Focal adhesion kinase 1 = Focal adhesion kinase 1 (Homo sapiens, UniProt Q05397); assay: Selectivity interaction (ProQinase) EUB0000171b PTK2
[2] = target: aryl hydrocarbon receptor (AHR) (Homo sapiens, UniProt P35869); assay: Selectivity interaction (Panel of kinases, GPCRs, ion channels and transporters (enzymatic assay)) EUB0000266bCl AHR
[3] = test system: Tyrosine-protein kinase ABL1 (Homo sapiens), P00519 [T315I]; assay: (§1) Selectivity interaction (KinomeScan (DiscoverX)) EUB0000666a ABL1; conditions: at 10 µM
[4] = test system: Tyrosine-protein kinase ABL1 (Homo sapiens), P00519 [H396P]; assay: as §1; conditions: at 10 µM
[5] = target: Tyrosine-protein kinase ABL1 (Homo sapiens, UniProt P00519); assay: as §1; conditions: at 10 µM
[6] = test system: Tyrosine-protein kinase ABL1 (Homo sapiens), P00519 [Q252H]; assay: as §1; conditions: at 10 µM
[7] = test system: Tyrosine-protein kinase ABL1 (Homo sapiens), P00519 [F317I]; assay: as §1; conditions: at 10 µM
[8] = test system: Tyrosine-protein kinase ABL1 (Homo sapiens), P00519 [E255K]; assay: as §1; conditions: at 10 µM
[9] = test system: Tyrosine-protein kinase ABL1 (Homo sapiens), P00519 [F317L]; assay: as §1; conditions: at 10 µM
[10] = target: Casein kinase I isoform epsilon (Homo sapiens, UniProt P49674); conditions: at 10 µM
[11] = target: Death-associated protein kinase 2 (Homo sapiens) (UniProt Q9UIK4); conditions: at 10 µM
[12] = target: T1, Dual specificity mitogen-activated protein kinase kinase 4 (Homo sapiens) (UniProt P45985); assay: Selectivity interaction (ActivX KiNativ screen (kinase selectivity in THP-1 cell lysates)) EUB0000639a MAP2K4; format: subcellular; conditions: lysate, at 5 µM
T1 sequence (whole entry): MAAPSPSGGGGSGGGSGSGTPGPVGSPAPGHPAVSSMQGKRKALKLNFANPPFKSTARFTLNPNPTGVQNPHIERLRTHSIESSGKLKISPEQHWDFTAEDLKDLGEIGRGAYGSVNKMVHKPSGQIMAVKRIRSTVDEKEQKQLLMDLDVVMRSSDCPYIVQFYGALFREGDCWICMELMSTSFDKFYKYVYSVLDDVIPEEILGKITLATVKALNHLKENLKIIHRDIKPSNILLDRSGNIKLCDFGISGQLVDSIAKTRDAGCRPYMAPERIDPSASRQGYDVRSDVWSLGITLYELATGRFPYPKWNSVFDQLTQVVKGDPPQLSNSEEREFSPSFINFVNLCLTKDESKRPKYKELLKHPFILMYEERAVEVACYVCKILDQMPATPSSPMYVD

[13] = target: T2, Testis-specific serine/threonine-protein kinase 1 (Homo sapiens) (UniProt Q9BXA7); assay: Selectivity interaction (KinomeScan (DiscoverX)) EUB0000045b TSSK1A
T2 sequence (whole entry): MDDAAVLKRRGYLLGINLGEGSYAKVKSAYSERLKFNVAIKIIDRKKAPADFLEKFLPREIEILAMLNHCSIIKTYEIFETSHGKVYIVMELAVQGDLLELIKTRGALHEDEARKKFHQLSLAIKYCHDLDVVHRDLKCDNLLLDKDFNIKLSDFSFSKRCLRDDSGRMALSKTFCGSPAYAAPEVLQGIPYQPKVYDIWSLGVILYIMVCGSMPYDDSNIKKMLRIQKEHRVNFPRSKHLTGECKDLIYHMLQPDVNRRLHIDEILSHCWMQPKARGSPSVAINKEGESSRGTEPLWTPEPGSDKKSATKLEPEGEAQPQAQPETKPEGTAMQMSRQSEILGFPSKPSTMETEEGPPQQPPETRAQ

[14] = target: T3, Serine/threonine-protein kinase 17B (Homo sapiens) (UniProt O94768); assay: Selectivity interaction (Ambit KINOMEscan and KiNATiv profiling in Jurkat cells) EUB0000090b STK17B; format: cell-based; conditions: at 1 µM
T3 sequence (whole entry): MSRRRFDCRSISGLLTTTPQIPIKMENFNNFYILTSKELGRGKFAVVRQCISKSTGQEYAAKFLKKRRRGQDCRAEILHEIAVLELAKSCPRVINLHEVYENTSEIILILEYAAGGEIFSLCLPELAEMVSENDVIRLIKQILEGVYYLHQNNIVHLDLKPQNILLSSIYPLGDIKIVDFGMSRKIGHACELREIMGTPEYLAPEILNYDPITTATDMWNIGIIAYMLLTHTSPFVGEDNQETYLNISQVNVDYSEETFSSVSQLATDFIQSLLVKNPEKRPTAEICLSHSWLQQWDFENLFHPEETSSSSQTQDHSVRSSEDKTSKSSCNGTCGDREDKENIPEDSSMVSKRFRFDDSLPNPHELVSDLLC

[15] = target: T4, Inhibitor of nuclear factor kappa-B kinase subunit epsilon (Homo sapiens) (UniProt Q14164); assay: Selectivity interaction (KinomeScan (DiscoverX)) EUB0001619a IKBKE; conditions: at 1 µM
T4 sequence (whole entry): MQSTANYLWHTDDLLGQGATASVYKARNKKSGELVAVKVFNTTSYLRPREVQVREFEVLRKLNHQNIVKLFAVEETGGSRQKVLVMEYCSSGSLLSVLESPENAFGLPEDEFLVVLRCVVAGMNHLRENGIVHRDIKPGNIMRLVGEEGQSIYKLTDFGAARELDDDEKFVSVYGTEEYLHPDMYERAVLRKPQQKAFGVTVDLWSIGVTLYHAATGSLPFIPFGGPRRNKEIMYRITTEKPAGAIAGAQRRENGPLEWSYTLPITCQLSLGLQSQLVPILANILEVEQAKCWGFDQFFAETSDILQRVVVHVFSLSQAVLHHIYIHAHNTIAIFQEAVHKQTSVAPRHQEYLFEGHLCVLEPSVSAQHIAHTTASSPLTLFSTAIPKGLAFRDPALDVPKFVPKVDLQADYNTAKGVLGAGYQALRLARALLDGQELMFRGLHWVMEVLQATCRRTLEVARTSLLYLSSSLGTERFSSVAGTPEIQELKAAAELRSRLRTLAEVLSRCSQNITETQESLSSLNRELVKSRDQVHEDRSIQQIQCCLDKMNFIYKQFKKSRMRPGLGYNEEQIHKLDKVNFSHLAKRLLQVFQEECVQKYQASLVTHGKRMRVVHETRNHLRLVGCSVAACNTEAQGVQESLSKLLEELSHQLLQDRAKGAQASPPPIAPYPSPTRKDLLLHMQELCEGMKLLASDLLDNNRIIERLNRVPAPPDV

Focal adhesion kinase 1, sequence (Q05397 2-1052 limits assumed): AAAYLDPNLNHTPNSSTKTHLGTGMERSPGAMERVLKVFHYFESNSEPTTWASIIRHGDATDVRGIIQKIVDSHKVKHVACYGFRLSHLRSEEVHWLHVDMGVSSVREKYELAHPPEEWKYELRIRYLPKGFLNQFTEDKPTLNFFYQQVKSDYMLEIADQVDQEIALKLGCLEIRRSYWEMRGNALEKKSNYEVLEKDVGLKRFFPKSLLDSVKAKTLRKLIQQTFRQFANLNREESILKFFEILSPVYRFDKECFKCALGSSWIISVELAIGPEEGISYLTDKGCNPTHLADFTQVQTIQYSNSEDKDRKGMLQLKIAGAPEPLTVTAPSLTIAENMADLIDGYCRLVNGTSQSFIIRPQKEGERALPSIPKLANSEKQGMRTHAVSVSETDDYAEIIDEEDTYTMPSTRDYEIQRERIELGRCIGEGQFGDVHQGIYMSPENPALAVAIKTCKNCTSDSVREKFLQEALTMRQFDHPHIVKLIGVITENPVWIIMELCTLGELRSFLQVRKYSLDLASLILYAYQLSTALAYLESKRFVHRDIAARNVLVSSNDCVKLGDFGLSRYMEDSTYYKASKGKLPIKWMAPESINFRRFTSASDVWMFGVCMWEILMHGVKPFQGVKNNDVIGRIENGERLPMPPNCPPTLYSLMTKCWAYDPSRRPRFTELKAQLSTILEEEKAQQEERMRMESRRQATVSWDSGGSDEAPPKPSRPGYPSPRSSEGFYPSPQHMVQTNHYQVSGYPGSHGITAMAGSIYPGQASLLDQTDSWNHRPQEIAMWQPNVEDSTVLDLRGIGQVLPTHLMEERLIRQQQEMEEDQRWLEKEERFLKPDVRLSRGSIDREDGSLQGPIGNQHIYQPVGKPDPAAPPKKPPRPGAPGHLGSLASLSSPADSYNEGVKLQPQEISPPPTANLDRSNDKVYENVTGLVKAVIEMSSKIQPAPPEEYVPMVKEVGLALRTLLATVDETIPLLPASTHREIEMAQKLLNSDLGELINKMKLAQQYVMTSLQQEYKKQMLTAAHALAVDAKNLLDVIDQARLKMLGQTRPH
Insulin receptor-related protein (Homo sapiens), sequence (P14616 27-742 limits assumed): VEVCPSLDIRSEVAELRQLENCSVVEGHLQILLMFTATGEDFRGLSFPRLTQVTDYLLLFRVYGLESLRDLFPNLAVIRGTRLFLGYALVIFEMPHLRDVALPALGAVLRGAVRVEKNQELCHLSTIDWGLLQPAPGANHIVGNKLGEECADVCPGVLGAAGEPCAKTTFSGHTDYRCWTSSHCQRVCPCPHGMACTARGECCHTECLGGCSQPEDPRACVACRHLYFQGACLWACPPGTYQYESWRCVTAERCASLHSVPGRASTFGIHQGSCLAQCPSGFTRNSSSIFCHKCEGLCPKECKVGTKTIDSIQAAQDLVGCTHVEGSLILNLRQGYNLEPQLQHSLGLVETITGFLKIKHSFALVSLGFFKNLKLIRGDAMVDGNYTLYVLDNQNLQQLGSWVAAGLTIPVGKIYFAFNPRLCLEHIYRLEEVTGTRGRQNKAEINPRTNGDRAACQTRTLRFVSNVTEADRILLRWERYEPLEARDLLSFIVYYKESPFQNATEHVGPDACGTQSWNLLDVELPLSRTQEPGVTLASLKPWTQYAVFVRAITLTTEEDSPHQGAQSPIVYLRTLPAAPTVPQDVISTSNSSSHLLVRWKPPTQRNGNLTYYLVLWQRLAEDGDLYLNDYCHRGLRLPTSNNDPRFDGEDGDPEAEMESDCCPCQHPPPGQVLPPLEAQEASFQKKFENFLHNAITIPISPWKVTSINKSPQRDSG
Insulin receptor-related protein (Homo sapiens), sequence (P14616 747-1297 limits assumed): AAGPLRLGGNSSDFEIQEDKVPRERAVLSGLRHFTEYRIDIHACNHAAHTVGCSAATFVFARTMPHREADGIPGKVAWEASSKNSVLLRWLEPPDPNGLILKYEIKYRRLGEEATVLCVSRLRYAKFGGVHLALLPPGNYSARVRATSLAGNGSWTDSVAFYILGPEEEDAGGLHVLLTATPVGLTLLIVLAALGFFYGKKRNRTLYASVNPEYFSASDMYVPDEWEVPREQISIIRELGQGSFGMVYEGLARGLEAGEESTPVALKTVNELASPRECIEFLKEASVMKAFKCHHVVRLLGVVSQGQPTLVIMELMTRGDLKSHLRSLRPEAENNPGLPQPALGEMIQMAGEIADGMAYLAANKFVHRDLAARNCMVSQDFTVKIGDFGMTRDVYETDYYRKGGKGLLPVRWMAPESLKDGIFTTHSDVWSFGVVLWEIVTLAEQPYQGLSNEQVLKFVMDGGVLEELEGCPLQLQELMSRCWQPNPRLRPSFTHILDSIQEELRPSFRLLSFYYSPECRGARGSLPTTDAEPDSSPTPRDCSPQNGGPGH
Death-associated protein kinase 2 (Homo sapiens), sequence (Q9UIK4 whole entry, looked up): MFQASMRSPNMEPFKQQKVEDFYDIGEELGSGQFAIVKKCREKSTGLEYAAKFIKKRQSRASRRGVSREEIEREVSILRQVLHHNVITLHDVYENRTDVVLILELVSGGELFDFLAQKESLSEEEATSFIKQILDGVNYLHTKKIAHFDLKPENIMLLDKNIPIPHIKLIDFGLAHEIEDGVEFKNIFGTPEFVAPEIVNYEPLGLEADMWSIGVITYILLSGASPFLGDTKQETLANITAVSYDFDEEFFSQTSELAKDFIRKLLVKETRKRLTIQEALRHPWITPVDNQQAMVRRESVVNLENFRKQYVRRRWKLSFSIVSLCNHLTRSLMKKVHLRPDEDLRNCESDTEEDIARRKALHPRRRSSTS
aryl hydrocarbon receptor (AHR), sequence (P35869 whole entry): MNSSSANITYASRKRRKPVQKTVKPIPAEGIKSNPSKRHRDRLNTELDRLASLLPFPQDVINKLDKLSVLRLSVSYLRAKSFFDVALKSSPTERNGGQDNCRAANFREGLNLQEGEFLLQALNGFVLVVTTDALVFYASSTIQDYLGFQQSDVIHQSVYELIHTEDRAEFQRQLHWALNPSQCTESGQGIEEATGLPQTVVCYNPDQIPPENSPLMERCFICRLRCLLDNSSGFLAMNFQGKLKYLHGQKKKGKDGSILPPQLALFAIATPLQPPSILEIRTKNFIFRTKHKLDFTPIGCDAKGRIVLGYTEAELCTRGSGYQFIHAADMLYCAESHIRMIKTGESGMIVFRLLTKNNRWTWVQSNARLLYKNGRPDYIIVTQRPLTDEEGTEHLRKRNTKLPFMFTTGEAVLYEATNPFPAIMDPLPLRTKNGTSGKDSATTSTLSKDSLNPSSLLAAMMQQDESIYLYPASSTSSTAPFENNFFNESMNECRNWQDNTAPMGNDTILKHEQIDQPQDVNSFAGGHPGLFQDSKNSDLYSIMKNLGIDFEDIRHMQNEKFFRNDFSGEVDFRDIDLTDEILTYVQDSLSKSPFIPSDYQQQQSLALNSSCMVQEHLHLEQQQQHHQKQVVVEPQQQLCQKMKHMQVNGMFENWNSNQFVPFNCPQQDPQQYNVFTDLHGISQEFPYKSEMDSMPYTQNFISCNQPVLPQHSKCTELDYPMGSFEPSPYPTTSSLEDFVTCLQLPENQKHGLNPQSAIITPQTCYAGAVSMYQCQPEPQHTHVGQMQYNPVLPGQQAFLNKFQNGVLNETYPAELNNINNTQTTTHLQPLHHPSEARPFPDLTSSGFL
Casein kinase I isoform epsilon, sequence (P49674 whole entry, looked up, canonical isoform): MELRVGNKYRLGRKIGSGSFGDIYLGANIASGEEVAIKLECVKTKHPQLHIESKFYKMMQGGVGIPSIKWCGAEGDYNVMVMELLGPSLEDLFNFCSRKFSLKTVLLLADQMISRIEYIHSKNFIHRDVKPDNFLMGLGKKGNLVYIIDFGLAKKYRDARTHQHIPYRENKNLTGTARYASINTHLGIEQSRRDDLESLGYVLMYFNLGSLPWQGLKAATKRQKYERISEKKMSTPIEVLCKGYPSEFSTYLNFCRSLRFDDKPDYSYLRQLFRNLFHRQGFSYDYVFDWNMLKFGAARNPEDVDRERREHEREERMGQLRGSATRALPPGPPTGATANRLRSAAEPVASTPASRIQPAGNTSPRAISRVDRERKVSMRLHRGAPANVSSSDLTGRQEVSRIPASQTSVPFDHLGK

With `COc1cc(N(C)c2ccnc3ccc(C(F)(F)F)cc23)cc(OC)c1OC` the % binding [1] was 76%.

In the case of `C=CC(=O)Nc1cccc(C(=O)Nc2ccc(Nc3cc(-c4[nH]c(SC)nc4C)ccn3)cc2)c1`, the % of control (Focal adhesion kinase 1; at 1 µM) is reported as 106% and the % of control (Focal adhesion kinase 1; at 5 µM) is reported as 92%.

`CCn1c(-c2nc3cc(C(=O)N4CCCC(N)C4)ccc3n2C)cc2ccccc21` (stereo not drawn) was tested, and the XC50 [2] was over 100 µM.

Compound `O=C(NOC[C@H](O)CO)c1ccc(F)c(F)c1Nc1ccc(I)cc1F` has a % of control [3] of 82%, a % of control [4] of 100% and a % of control [5] of 77%. For the same compound, the % of control [6] was 100%, the % of control [7] was 100% and the % of control [8] was 100%. For the same compound, the % of control [9] was 100%.

`Cc1cc([C@@H](C)Nc2ccccc2C(=O)O)c2nc(N3CCOCC3)cc(=O)n2c1` [AZD-6482] was tested, and the % of control [10] was 98% and the % of control [11] was 92%.

`CC[C@@H]1[C@H](F)C(=O)N[C@@H]1COc1nccc2cc(C(N)=O)c(OC)cc12` [ZIMLOVISERTIB] was tested, and the % of inhibition [12] was 29.6%.

`C=CC(=O)Nc1cc(-n2c(=O)ccc3cnc4ccc(-c5ccc(NS(C)(=O)=O)cc5)cc4c32)ccc1C` was tested, and the % of control ([13]; at 1 µM) was 100% and the % of control ([13]; at 10 µM) was 74%.

Work on `CN(C)C/C=C/C(=O)Nc1ccc(C(=O)N2CCCC(Nc3ncc(Cl)c(-c4c[nH]c5ccccc45)n3)C2)cc1` (stereo not drawn) yielded a % of control [14] of 81%.

`N#Cc1cccc(-c2c[nH]c3ncnc(N4CCOCC4)c23)c1` showed a % of control [15] of 100%.
